Measurements reported in ChEMBL document CHEMBL3997807, “Isatin-β-thiocarbohydrazones: Microwave-assisted synthesis, antitumor activity and structure-activity relationship” (Eur J Med Chem, 2017).
pIC50: −log10 of the molar value.

Assays:
HeLa = assay: Growth inhibition of human HeLa cells by MTT assay; type: functional, cell-based
COS-7 = assay: Growth inhibition of African green monkey COS7 cells by MTT assay; type: functional, cell-based; details: Chlorocebus aethiops
Ehrlich [1] = assay: Antitumor activity against mouse EAC cells implanted in Swiss albino mouse assessed as hemoglobin count in blood at 0.5 mg for 9 days (reference value: 8.15 g/dL); type: functional
Ehrlich [2] = assay: Antitumor activity against mouse EAC cells implanted in Swiss albino mouse assessed as WBC count in blood at 0.5 mg for 9 days (reference value: 23.96 10^3/mm3); type: functional
Ehrlich [3] = assay: Antitumor activity against mouse EAC cells implanted in Swiss albino mouse assessed as RBC count in blood at 0.5 mg for 9 days (reference value: 3.69 10^6/mm3); type: functional
Ehrlich [4] = assay: Antitumor activity against mouse EAC cells implanted in Swiss albino mouse assessed as tumor volume in ascitic fluid at 0.5 mg for 9 days (reference value: 9.85 mL); type: functional
Ehrlich [5] = assay: Antitumor activity against mouse EAC cells implanted in Swiss albino mouse assessed as viable tumor cell count in ascitic fluid at 0.5 mg for 9 days (reference value: 83.2 10^6/100uL); type: functional
Ehrlich [6] = assay: Antitumor activity against mouse EAC cells implanted in Swiss albino mouse assessed as increase in mean life span at 0.5 mg for 9 days relative to control; type: functional

Structure (SMILES) | pIC50 (HeLa) | pIC50 (COS-7) | Activity (Ehrlich [1]) [g/dL] | Activity (Ehrlich [2]) [×10³ /mm3] | Activity (Ehrlich [3]) [×10⁶ /mm3] | Activity (Ehrlich [4]) [mL] | Activity (Ehrlich [5]) [×10⁶ /100microL] | ILS (Ehrlich [6]) [%]
Cc1ccc2c(c1)/C(=N/NC(=S)N/N=C/c1ccc(Br)cc1)C(=O)N2 | < 4.30 | < 4.30 |  |  |  |  |  | 
Cc1ccc2c(c1)/C(=N/NC(=S)N/N=C/c1c(Cl)cccc1Cl)C(=O)N2 | 5.75 | 5.41 |  |  |  |  |  | 
COc1ccc(/C=N/NC(=S)N/N=C2\C(=O)Nc3ccc(Br)cc32)cc1O | 5.65 | 5.51 | 9.11 | 19.48 | 3.86 | 7.8 | 66.78 | 24.1
O=C1Nc2ccc(Br)cc2/C1=N/NC(=S)N/N=C/c1c(Cl)cccc1Cl | 5.45 | 5.17 |  |  |  |  |  | 
COc1ccc(/C=N/NC(=S)N/N=C2\C(=O)Nc3ccc(C)cc32)cc1O | 5.56 | 5.50 | 11.15 | 9.23 | 4.46 | 3.26 | 38.75 | 110.9
Cc1ccc2c(c1)/C(=N/NC(=S)N/N=C/c1c(F)cccc1Cl)C(=O)N2 | 5.82 | 5.66 | 10.09 | 12.26 | 4.19 | 6.2 | 51.52 | 72.4
Cc1ccc2c(c1)/C(=N/NC(=S)N/N=C/c1ccc(-c3ccccc3)cc1)C(=O)N2 | < 4.30 | < 4.30 |  |  |  |  |  | 
Cc1ccc2c(c1)/C(=N/NC(=S)N/N=C/c1ccc3ccccc3c1)C(=O)N2 | < 4.30 | < 4.30 |  |  |  |  |  | 
COc1ccc(/C=N/NC(=S)N/N=C2\C(=O)Nc3ccc(Br)cc32)c(OC)c1 | < 4.30 | < 4.30 |  |  |  |  |  | 
Cc1ccc(O)c(/C=N/NC(=S)N/N=C2\C(=O)Nc3ccc(C)cc32)c1 | < 4.30 | < 4.30 |  |  |  |  |  | 
COc1ccc(/C=N/NC(=S)N/N=C2\C(=O)Nc3ccc(C)cc32)c(OC)c1 | < 4.30 | < 4.30 |  |  |  |  |  | 
Cc1ccc2c(c1)/C(=N/NC(=S)N/N=C/c1ccccc1Br)C(=O)N2 | < 4.30 | < 4.30 |  |  |  |  |  | 
Cc1ccc(O)c(/C=N/NC(=S)N/N=C2\C(=O)Nc3ccc(Br)cc32)c1 | < 4.30 | < 4.30 |  |  |  |  |  | 
COc1cccc2c1C(=O)c1c(O)c3c(c(O)c1C2=O)C[C@@](O)(C(=O)CO)C[C@@H]3O[C@H]1C[C@H](N)[C@H](O)[C@H](C)O1 [DOXORUBICIN] | 5.69 | 5.52 |  |  |  |  |  | 
Cc1ccc2c(c1)/C(=N/NC(=S)N/N=C/c1cc3ccccc3c3ccccc13)C(=O)N2 | < 4.30 | < 4.30 |  |  |  |  |  | 
O=C1Nc2ccc(Br)cc2/C1=N/NC(=S)N/N=C/c1cc2ccccc2c2ccccc12 | < 4.30 | < 4.30 |  |  |  |  |  | 
O=c1[nH]cc(F)c(=O)[nH]1 [FLUOROURACIL] |  |  | 12.96 | 8.86 | 5.21 | 1.6 | 20.17 | 237.9
Cc1ccc2c(c1)/C(=N/NC(=S)N/N=C/c1ccccn1)C(=O)N2 | 5.50 | 5.67 | 12.93 | 7.89 | 5.28 | 2.52 | 24.22 | 189.6
O=C1Nc2ccc(Br)cc2/C1=N/NC(=S)N/N=C/c1ccc2ccccc2c1 | < 4.30 | < 4.30 |  |  |  |  |  | 
O=C1Nc2ccc(Br)cc2/C1=N/NC(=S)N/N=C/c1c(F)cccc1Cl | 5.79 | 5.59 | 9.96 | 13.05 | 4.09 | 6.7 | 57.5 | 72.4
O=C1Nc2ccc(Br)cc2/C1=N/NC(=S)N/N=C/c1ccc(-c2ccccc2)cc1 | 5.49 | < 4.30 |  |  |  |  |  | 
O=C1Nc2ccc(Br)cc2/C1=N/NC(=S)N/N=C/c1ccc(Br)cc1 | 5.33 | 5.29 |  |  |  |  |  | 
O=C1Nc2ccc(Br)cc2/C1=N/NC(=S)N/N=C/c1ccccc1Br | < 4.30 | < 4.30 |  |  |  |  |  | 
